Test results from patent US9593084B2 (Parion Sciences, Inc., priority 2012, dated 2017).

Key:
[1] = target: T1, epithelial sodium channel (Canis lupus familiaris, UniProt A0A8I3MKE6+A0A8I3Q679+Q95165); experiment: Inhibition of short-circuit current (ISC) in airway epithelial monolayers in Ussing chambers; assay type: cell-based, canine; settings: canine bronchial epithelial cells, short-circuit current; read-out: Potency of Sodium Channel Blockade IC50
T1 construct: endogenous in cells; host or cells: primary canine bronchial epithelial cells cultured at air-liquid interface
T1 sequence (A0A8I3Q679 1-649): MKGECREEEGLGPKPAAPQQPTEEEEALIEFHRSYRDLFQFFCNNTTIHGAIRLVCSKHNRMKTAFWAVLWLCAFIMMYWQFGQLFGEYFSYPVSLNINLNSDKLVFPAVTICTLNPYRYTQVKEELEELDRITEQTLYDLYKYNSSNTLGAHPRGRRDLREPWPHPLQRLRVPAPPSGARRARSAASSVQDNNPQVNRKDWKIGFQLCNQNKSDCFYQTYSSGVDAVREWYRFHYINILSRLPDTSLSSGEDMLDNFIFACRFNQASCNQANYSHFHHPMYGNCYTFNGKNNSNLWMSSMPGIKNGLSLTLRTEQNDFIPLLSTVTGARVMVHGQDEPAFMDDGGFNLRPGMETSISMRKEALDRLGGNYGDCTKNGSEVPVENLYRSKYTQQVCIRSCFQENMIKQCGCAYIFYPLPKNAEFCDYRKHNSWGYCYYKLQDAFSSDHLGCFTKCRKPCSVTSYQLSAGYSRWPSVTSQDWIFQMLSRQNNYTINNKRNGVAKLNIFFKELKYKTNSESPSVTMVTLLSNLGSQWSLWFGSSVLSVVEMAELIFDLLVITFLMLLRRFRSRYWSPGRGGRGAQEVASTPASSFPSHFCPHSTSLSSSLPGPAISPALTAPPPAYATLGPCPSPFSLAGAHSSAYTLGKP
T1 sequence (Q95165 1-641): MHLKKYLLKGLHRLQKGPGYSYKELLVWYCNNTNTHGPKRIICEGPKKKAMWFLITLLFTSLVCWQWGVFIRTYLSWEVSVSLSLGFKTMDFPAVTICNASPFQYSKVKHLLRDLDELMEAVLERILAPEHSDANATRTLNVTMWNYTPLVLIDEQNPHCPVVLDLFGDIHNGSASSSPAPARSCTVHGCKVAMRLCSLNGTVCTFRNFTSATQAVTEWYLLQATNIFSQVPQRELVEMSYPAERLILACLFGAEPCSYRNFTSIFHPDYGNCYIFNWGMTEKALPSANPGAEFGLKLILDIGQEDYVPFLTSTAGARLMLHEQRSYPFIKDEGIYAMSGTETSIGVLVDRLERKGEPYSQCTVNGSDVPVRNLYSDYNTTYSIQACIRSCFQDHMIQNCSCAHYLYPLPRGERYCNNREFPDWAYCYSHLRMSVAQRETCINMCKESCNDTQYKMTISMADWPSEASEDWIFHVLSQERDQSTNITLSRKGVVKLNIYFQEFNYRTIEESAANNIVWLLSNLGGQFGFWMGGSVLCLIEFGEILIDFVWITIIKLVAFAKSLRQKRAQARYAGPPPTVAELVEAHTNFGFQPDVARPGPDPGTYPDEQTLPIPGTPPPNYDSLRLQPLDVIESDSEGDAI
T1 sequence (A0A8I3MKE6 1-646): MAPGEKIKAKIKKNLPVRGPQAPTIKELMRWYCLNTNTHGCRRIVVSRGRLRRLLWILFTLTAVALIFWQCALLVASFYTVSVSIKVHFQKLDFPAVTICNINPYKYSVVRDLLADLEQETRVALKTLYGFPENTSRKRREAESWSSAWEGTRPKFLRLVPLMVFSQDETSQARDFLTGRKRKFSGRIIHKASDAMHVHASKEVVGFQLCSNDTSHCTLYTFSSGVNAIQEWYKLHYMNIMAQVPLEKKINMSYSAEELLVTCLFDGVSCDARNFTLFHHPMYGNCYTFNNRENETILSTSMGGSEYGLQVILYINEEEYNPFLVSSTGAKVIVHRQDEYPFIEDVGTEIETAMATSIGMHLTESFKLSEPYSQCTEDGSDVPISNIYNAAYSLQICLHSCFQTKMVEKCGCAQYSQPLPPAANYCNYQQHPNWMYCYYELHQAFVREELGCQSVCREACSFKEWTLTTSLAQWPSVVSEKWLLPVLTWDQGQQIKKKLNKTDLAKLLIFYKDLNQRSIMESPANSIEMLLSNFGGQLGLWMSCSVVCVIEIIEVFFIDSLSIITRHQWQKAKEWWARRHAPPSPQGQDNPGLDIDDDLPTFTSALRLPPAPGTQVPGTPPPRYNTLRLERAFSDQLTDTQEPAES
Description: One assay used to assess mechanism of action and/or potency of the compounds of the present invention involves the determination of lumenal drug inhibition of airway epithelial sodium currents measured under short circuit current (ISC) using airway epithelial monolayers mounted in Using chambers. Cells obtained from freshly excised human, dog, sheep or rodent airways are seeded onto porous 0.4 micron Snapwelff Inserts (CoStar), cultured at air-liquid interface (ALI) conditions in hormonally defined media, and assayed for sodium transport activity (ISC) while bathed in Krebs Bicarbonate Ringer (KBR) in Using chambers. All test drug additions are to the lumenal bath with half-log dose addition protocols (from 1×10^−11 M to 3×10^−5 M), and the cumulative change in ISC (inhibition) recorded. All drugs are prepared in dimethyl sulfoxide as stock solutions at a concentration of 1×10^−2 M and stored at −20° C. […] After the maximal concentration ([…]) is administered, the lumenal bath is exchanged three times with fresh drug-free KBR solution, and the resultant ISC measured after each wash for approximately 5 minutes in duration. Reversibility is defined as the percent return to the baseline value for sodium current after the third wash. All data from the voltage clamps are collected via a computer interface and analyzed off-line.
Dose-effect relationships for all compounds are considered and analyzed by the Prism 3.0 program.

[2] = system: human bronchial epithelial (HBE) cells; experiment: Airway surface liquid drug clearance and metabolism by human airway epithelium; assay type: in vitro ADME
Description: The disappearance of 33 from the apical surface and airway epithelial metabolism were assessed in human bronchial epithelial (HBE) cells (Table 3). In these experiments 25 μL of a 25 μM solution of ENaC blocker was added to the apical surface of HBE cells grown at an air/liquid interface, and the drug and metabolite concentration in the apical and basolateral compartment was measured over 2 h by UPLC.
Therefore, the compounds of formula (I) have a longer half-life on mucosal surfaces compared to these know compounds as evidenced by the data shown in Table G. The disappearance of Compound 33 from the apical surface and airway epithelial metabolism were assessed in HBE and compared to Comparative Example 1 (Table H). In these experiments 25 μL of a 25 μM solution of ENaC blocker was added to the apical surface of HBE cells grown at an air/liquid interface, and the drug concentration in the apical and basolateral compartment was measured over 2 h by UPLC.

[3] = HBE cells at air/liquid interface, 25 μL of 25 μM apical, mean ± SD

N=C(NCCCCc1ccc(C[C@H](N)C(=O)Nc2ccc(CCCN(C[C@H](O)[C@@H](O)[C@H](O)[C@H](O)CO)C[C@H](O)[C@@H](O)[C@H](O)[C@H](O)CO)cc2)c2ccccc12)NC(=O)c1nc(Cl)c(N)nc1N [Compound 33, 3,5-diamino-N—(N-(4-(4-((S)-2-amino-3-(4-(3-(bis((2S,3R,4R,5R)-2,3,4,5,6-pentahydroxyhexyl)amino)propyl)phenylamino)-3-oxopropyl)naphthalen-1-yl)butyl)carbamimidoyl)-6-chloropyrazine-2-carboxamide]
IC50 [1]: 21.8 nM | % of Apical Mass as Metabolites (2 h) [2, 3]: 4% | % on Basolateral Side as Metabolites (2 h) [2, 3]: 32% | fate on the apical side after 2 h incubation ([2]; HBE cells, apical surface, 37° C.): mostly unmetabolized on the apical side
